The text below walks through data of ChEMBL document CHEMBL1201862, “PubChem BioAssay data set” (2004).

Series [1] concerns Escherichia coli. As to the kind of experiment: microbe, parasite or virus in culture.
Series [2] relates to Escherichia coli. As to the kind of experiment: microbe, parasite or virus in culture. This is another data set of the same source.
The target of another series is Cytochrome P450 2C9 (Homo sapiens, UniProt P11712).
A further series addresses Cytochrome P450 2C19 (Homo sapiens, UniProt P33261). As to the kind of experiment: Cytochrome panel assay with activity outcomes. Panel member name: p450-cyp2c19 Compounds with AC50 equal or less than 10 uM are considered active. The series is classed as functional.
Series [3] is described as follows: MIN6 cell viability loss – mouse insulinoma, cytotoxicity control, dose response (AID 2122).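 Also: confirmatory high-throughput counterscreen run to flag cytotoxic compounds.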 The series is classed as functional.
The nature of series [4]: decrease of insulin promoter-GFP reporter – imaging, high-content screening, mouse beta cells (AID 1628). It counts as functional. Conditions: MIN6.
Series [5] is described as follows: NIH-3T3 fibroblast cytotoxicity, dose response, cytotoxicity control, cell-based, fluorescence, Alamar Blue, secondary assay (AID 2327).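 Also: NIH-3T3 mouse fibroblasts cultured with fluconazole at 8 µg/mL.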 It counts as functional. In general terms: Alamar Blue is a resazurin reagent that responds to reducing activity.
The target of series [6] is T1, Fatty acid synthase (Homo sapiens, UniProt P49327). Briefly: inhibition of human FAS-TE enzyme activity – biochemical, kinetic fluorescence intensity, dose response (AID 624326).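 Also: rate of fluorescence rise from hydrolysis of a fluorogenic O-methyl fluorescein ester substrate.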 The series is classed as functional.
T1 sequence (P49327 whole entry): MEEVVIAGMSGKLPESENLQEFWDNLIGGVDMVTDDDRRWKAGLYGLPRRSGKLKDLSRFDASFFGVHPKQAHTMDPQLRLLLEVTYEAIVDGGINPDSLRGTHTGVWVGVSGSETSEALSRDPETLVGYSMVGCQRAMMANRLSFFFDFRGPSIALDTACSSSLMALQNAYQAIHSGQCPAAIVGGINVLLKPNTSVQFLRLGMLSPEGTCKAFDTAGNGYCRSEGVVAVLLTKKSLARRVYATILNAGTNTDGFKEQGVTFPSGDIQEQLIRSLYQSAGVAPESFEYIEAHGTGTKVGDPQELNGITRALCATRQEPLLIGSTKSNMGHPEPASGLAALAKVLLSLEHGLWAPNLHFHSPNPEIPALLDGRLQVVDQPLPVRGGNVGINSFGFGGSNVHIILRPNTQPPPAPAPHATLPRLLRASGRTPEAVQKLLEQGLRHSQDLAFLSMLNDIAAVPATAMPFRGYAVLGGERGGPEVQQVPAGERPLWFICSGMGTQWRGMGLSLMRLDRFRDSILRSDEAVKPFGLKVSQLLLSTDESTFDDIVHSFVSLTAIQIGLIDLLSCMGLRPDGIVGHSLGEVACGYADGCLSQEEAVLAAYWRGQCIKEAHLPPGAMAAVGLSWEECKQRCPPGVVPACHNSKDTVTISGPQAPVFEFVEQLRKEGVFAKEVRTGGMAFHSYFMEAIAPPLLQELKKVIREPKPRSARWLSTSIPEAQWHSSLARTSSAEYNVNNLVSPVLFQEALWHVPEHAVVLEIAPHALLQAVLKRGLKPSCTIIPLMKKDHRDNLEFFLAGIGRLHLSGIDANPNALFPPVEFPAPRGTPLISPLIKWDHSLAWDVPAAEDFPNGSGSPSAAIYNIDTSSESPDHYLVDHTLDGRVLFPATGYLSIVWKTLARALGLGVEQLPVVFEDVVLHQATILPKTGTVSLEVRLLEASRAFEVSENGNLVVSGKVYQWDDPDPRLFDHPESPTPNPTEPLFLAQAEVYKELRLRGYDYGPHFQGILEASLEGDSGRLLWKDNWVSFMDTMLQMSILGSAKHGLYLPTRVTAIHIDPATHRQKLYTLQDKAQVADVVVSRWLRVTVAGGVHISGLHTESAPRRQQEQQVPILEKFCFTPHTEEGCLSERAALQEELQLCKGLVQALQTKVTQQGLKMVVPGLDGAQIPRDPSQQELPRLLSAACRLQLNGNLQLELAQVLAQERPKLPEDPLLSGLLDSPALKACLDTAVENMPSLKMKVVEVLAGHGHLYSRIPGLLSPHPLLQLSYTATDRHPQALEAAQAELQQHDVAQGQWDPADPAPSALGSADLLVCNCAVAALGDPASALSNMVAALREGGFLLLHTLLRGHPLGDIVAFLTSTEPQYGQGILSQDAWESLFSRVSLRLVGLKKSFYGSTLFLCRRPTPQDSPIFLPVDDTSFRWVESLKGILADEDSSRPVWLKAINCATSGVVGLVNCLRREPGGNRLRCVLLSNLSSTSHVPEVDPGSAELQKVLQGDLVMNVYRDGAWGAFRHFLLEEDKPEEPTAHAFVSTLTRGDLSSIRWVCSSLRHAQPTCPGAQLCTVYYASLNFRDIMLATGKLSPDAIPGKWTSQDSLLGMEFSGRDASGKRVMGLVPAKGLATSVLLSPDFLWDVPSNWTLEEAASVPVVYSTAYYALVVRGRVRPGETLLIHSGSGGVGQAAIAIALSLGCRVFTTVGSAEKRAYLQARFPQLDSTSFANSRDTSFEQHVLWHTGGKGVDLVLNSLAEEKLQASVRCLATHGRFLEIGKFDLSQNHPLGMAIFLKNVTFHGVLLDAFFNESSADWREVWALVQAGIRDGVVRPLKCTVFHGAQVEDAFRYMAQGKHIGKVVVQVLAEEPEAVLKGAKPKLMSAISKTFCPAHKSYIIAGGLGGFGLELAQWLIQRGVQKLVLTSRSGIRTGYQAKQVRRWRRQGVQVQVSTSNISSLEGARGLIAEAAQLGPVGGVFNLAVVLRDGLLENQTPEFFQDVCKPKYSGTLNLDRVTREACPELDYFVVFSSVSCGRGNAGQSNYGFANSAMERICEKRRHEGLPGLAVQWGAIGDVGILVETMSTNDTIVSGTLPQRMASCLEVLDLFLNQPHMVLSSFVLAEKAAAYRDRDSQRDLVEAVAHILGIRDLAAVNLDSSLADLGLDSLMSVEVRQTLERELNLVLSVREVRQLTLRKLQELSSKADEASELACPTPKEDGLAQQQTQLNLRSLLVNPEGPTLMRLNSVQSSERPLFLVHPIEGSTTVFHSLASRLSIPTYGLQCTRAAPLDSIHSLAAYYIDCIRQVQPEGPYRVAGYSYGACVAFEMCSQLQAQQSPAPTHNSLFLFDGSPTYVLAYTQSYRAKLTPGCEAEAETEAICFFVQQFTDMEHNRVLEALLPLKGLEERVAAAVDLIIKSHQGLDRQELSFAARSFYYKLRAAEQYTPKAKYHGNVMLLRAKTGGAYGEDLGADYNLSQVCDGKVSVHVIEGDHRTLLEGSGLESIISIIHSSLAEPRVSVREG
A further series deals with Genome polyprotein (dengue virus type 2, UniProt P29990). Briefly: flavivirus cap methylation enzyme inhibition – biochemical, confirmation dose response, primary screen (AID 588689). It counts as functional.
Genome polyprotein, sequence (P29990 2492-3391 limits assumed): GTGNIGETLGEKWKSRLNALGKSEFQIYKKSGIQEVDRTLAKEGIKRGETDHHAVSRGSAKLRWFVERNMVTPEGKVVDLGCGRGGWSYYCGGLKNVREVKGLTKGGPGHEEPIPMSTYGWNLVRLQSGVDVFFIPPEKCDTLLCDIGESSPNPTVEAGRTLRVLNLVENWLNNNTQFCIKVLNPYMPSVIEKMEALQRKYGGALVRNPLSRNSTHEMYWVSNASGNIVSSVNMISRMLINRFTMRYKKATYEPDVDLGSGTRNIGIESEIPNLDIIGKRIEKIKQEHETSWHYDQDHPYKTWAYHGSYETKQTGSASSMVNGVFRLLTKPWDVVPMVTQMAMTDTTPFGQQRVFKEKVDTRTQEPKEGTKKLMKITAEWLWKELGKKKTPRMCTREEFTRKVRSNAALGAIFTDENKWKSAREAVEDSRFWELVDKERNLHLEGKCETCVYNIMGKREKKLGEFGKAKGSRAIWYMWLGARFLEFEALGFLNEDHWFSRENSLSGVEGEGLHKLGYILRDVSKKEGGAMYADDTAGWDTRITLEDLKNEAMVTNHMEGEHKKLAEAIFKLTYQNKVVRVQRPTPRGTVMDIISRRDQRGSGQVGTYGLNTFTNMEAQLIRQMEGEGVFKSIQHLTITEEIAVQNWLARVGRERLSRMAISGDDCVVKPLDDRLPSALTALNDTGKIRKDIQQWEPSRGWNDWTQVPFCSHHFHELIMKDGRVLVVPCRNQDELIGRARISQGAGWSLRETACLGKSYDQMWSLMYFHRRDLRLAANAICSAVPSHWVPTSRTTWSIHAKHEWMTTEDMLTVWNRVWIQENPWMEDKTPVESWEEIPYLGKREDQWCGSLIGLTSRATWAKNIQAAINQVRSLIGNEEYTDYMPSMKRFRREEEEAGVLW
Series [7] concerns the target Induced myeloid leukemia cell differentiation protein Mcl-1 (Homo sapiens, UniProt Q07820). The series is classed as functional.
In series [8] the target is T1, Fatty acid synthase. Briefly: inhibition of human FAS-TE enzyme activity – biochemical, endpoint fluorescence intensity, uHTS hits, dose response (AID 624327).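 Also: fluorescence from hydrolysis of an O-methyl fluorescein acyl ester substrate by the enzyme.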 It counts as functional.
A further series deals with Large T antigen (Simian virus 40, UniProt P03070). The series is classed as functional, Betapolyomavirus macacae.
Series [9] addresses T2, Trace amine-associated receptor 1 (Homo sapiens, UniProt Q96RJ0).
T2 sequence (Q96RJ0 whole entry): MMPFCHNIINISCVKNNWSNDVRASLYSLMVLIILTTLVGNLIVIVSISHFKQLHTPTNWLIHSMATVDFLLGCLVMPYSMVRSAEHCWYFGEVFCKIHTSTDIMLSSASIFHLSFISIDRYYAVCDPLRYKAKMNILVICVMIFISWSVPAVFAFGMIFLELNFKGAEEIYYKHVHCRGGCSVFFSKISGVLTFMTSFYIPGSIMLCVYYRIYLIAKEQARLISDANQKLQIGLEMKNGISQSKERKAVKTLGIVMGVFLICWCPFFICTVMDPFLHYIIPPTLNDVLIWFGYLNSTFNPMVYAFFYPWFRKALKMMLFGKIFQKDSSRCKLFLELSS
As to the kind of experiment: Fluorescence-based cell-based high throughput dose response assay to identify agonists of the human trace amine associated receptor 1 (TAAR1). The series is classed as functional.

Series [10] has as its target T2, Trace amine-associated receptor 1. As to the kind of experiment: Counterscreen for agonists of the human trace amine associated receptor 1 (hTAAR1): Fluorescence-based cell-based high throughput dose response assay to identify hTAAR1 agonist that also desensitize TAAR1 receptor response. It counts as functional.
The nature of series [11]: cells. It counts as functional, cell-based.
A short description of series [12]: cells. It counts as functional, cell-based. This is another data set of the same source.
The nature of series [13]: viability loss in Vero cells – cytotoxicity control for Vif-APOBEC3G degradation inhibitor project, dose response (AID 1117358). It counts as functional. Conditions: Vero.
Series [14] has as its target T3, Heat shock factor protein 1 (Mus musculus, UniProt P38532).
T3 sequence (P38532 whole entry): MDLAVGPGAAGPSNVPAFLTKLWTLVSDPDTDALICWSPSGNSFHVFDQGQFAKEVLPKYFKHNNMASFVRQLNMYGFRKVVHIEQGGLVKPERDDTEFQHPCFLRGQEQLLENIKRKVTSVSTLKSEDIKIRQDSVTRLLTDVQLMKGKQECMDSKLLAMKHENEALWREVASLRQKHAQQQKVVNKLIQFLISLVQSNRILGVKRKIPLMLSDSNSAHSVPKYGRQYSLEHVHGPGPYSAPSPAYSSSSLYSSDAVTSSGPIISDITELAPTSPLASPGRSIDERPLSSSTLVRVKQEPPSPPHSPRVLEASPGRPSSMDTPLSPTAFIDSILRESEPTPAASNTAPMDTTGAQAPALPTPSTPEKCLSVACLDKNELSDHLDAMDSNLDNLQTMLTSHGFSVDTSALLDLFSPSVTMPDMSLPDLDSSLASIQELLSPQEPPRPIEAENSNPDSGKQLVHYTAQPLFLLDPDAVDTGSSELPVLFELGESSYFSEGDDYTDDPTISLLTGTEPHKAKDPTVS
Briefly: enhancement of HSF1-driven luciferase signal – cell-based, NIH3T3, luminescence, dose retest, confirmation (AID 435004).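 Also: stress induced by proteasome inhibitor MG132 added 30 min after compound; luciferase reporter driven by HSF1 response element in NIH3T3 cells; actives raise luminescence as potentiators of the MG132 stress response.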 It counts as functional.

Series [15] deals with T4, Short transient receptor potential channel 4 (Mus musculus, UniProt Q9QUQ5).
T4 sequence (Q9QUQ5 whole entry): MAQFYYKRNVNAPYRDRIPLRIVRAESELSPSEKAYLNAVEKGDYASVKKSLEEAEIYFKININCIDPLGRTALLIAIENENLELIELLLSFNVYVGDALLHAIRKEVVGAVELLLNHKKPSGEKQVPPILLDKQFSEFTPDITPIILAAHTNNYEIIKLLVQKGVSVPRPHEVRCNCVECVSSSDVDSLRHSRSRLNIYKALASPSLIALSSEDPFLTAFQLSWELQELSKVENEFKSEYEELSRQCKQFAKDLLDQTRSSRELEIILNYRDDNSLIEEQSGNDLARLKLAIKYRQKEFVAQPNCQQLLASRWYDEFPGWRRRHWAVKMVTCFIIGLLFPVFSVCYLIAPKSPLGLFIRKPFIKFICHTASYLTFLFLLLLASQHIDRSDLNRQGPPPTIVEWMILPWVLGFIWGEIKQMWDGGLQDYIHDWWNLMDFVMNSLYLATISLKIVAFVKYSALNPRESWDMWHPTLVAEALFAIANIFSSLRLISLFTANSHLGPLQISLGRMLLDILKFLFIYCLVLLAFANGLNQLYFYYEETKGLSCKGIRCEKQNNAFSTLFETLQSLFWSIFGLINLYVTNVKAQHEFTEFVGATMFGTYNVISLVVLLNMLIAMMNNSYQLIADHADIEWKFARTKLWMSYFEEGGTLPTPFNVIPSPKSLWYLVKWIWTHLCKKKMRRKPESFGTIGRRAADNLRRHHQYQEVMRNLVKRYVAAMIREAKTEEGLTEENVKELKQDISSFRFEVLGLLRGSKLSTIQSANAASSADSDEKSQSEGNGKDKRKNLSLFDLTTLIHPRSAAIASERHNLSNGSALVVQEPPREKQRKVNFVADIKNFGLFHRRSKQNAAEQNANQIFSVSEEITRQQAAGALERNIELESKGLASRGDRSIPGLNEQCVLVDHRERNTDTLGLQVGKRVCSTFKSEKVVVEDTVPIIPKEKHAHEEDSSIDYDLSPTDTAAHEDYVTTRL
As to the kind of experiment: calcium entry via TRPC4 opening agents – cell-based, HEK293 TRPC4/mu-opioid, Fluo-4 calcium, dose response (AID 434937). The series is classed as functional.

Series [16] deals with T5, Corticotropin-releasing factor receptor 2/Corticotropin-releasing factor-binding protein (Homo sapiens, UniProt P24387+Q13324).
T5 sequence (Q13324 whole entry): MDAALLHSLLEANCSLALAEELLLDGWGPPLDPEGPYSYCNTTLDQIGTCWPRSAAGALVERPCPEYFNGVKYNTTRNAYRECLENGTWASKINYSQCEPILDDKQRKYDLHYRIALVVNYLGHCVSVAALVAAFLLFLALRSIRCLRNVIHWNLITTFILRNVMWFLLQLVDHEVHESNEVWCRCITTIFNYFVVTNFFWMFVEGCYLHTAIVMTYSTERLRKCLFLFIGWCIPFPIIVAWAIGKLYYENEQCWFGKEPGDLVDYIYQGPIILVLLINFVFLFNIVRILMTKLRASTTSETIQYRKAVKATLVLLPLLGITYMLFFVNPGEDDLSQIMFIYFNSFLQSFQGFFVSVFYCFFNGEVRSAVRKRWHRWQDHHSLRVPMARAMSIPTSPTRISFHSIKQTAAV
T5 sequence (P24387 whole entry): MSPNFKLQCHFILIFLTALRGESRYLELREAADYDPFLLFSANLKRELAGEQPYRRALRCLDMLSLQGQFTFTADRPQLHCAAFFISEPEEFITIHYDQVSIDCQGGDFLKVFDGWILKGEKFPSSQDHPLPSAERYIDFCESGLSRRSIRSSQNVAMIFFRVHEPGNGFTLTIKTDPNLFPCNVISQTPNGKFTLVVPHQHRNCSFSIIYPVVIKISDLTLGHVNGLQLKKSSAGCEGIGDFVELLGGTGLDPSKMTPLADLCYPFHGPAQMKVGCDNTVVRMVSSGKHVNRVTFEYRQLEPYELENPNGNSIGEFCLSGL
Briefly: activators of CRF receptor 2 with binding protein – uHTS hits, confirmation (AID 602473). Conditions: read-out: EC50_Mean. The series is classed as functional.

For the next series, the target named is Cytochrome P450 3A4 (Homo sapiens, UniProt P08684).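 Also: CYP3A4 tested as one member of a cytochrome P450 panel screen.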
In a further series the target is T6, Cytochrome P450 1A2 (Homo sapiens, UniProt P05177).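 Also: PubChem cytochrome P450 panel assay, CYP1A2 panel member.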
T6 sequence (P05177 whole entry): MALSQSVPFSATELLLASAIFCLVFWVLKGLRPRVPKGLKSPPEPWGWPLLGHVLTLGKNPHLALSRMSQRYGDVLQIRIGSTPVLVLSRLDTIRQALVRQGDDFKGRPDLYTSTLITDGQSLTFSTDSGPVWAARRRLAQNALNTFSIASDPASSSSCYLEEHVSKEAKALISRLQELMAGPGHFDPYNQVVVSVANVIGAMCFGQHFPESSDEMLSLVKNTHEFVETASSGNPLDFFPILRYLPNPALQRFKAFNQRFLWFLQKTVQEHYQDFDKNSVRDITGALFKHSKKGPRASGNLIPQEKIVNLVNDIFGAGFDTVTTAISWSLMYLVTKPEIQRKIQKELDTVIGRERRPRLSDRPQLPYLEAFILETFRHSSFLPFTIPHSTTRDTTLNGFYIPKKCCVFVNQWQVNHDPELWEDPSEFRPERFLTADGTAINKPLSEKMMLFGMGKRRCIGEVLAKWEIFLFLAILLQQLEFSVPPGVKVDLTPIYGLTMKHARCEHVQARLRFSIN

The source made the active and inactive calls.

Cytochrome P450 2C19, sequence (P33261 whole entry): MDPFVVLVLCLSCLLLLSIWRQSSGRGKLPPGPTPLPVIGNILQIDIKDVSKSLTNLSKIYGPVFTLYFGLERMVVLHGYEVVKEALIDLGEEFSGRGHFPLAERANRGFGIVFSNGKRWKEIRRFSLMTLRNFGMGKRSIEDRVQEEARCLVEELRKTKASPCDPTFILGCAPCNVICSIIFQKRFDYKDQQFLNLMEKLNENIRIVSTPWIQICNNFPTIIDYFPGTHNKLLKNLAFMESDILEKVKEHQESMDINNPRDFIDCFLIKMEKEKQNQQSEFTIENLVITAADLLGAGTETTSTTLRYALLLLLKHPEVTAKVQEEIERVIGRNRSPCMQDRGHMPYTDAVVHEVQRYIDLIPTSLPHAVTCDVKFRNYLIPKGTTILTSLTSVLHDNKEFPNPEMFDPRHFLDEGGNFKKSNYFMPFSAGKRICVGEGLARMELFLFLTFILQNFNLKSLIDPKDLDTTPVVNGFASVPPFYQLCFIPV
Cytochrome P450 2C9, sequence (P11712 whole entry): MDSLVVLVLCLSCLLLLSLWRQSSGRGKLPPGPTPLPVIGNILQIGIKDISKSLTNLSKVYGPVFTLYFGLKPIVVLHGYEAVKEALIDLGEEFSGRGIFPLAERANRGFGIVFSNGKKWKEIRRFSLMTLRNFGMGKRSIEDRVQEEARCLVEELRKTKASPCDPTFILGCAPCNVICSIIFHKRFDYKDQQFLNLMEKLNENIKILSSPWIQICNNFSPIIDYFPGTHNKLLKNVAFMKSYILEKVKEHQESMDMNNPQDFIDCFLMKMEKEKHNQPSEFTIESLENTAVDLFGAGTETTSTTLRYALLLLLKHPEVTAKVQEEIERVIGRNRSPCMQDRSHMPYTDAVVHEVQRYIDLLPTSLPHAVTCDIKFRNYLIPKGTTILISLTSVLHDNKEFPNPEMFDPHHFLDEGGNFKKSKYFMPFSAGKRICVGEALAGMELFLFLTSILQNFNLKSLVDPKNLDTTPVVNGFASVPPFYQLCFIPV
Induced myeloid leukemia cell differentiation protein Mcl-1, sequence (Q07820 whole entry): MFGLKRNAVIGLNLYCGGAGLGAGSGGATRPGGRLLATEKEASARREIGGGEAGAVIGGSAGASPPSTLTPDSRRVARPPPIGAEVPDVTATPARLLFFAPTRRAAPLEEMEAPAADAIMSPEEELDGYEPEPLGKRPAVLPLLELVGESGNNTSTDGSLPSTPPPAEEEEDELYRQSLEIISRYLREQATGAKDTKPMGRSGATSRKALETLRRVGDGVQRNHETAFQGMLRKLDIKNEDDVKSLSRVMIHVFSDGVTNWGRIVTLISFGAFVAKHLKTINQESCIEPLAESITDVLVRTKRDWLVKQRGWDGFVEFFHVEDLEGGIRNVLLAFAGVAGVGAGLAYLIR

With `C[C@H]1c2cccc(O)c2C(=O)C2=C(O)C3(O)C(O)=C(C(N)=O)C(=O)[C@@H](N(C)C)[C@@H]3[C@@H](O)[C@@H]21` (some centres undefined), the AC50 was 1.13 µM (active) with Escherichia coli [1] and 30 µM (active) with Escherichia coli [2].

In the case of `O=C(OCCCN1CCCCC1)c1ccc(O)cc1`, the AC50 entry at Cytochrome P450 2C9 and on Cytochrome P450 2C19 was “inconclusive” in each case.

With `C[n+]1c(-c2ccccc2)cc(CCCCc2cc(-c3ccccc3)[n+](C)c(-c3ccccc3)c2)cc1-c1ccccc1.[O-][Cl+3]([O-])([O-])[O-].[O-][Cl+3]([O-])([O-])[O-]`, the IC50 in [3] was 4.7 µM (active); in series [4], 2.72 µM (active). In series [5], the EC50 was > 160 µM (inactive).

Regarding `Cc1nc2ccc(NC(=O)c3cc([N+](=O)[O-])cc([N+](=O)[O-])c3Cl)cc2s1`, the IC50 at Fatty acid synthase [6] was 2.54 µM (active); at Genome polyprotein, 59.6 µM (active); in series [7] it was 5.15 µM (active); on Fatty acid synthase [8], 2.23 µM (active); on Large T antigen, 59.9 µM (active).

As for `O=C(N/N=C/c1cccc(C(F)(F)F)c1)C1CCN(c2ncc(C(F)(F)F)cc2Cl)CC1`, the AC50 result at Cytochrome P450 2C9 and at Cytochrome P450 2C19 was “inconclusive” each time.

Turning to `COc1cc(CNCCc2ccccc2F)ccc1OCc1ccc(Cl)nc1`, the EC50 was 2.83 µM (active) in [9] and 11.1 µM (inactive) in the series “cells [11]”. Besides, the IC50 is 9.47 µM (active) in series [10] and 28.7 µM (inactive) in “cells [12]”. Moreover, the CC50 in series [13] was > 40 µM (active).

In the case of `Cc1ccc([N+](=O)[O-])cc1/N=N/c1c(-c2ccc([N+](=O)[O-])cc2)[nH]n(C(N)=S)c1=O`, the EC50 in series [14] is > 260 µM (inactive). In addition, the IC50 in series [7] is 1.18 µM (active).

Turning to `CO[C@H]1/C=C/O[C@@]2(C)Oc3c(C)c(O)c4c(O)c(c(/C=N/N5CCN(C)CC5)c(O)c4c3C2=O)NC(=O)/C(C)=C\C=C\[C@H](C)[C@H](O)[C@@H](C)[C@@H](O)[C@@H](C)[C@H](OC(C)=O)[C@@H]1C` [RIFAMPIN], in the series on Escherichia coli [1], the AC50 is 32.3 µM (active).

Regarding `Clc1ccc(CN2CCN(c3ncnc4scc(-c5cccs5)c34)CC2)cc1`, the IC50 in series [3] is 2.12 µM (active); in [4], 2.39 µM (active).

`CCN1C(=O)c2cccc3c(S(=O)(=O)Nc4ccccc4OC)ccc1c23`: the EC50 in [15] was 5.96 µM (active); in series [16] it was 7.94 µM (active).

As to `Cc1cc(C)n(-c2ccc(NC(=O)C3CCN(Cc4ccccn4)CC3)cc2)n1`, the AC50 in the series on Escherichia coli [1] was 51.6 µM (active); with Escherichia coli [2] it was 39.4 µM (active).

As to `COc1ccc(S(=O)(=O)N2CCCC2)c(Cl)c1Cl`, the AC50 in the series with Escherichia coli [1] is 37.7 µM (active); in the series on Escherichia coli [2], 71.3 µM (active).

Regarding `Cn1cccc1C(=O)N1CCC2(CC1)CN(c1cccc(-c3ccccc3)c1)C2`, the AC50 result on Cytochrome P450 3A4 was “inconclusive”; at Cytochrome P450 2C9, “inconclusive”; on Cytochrome P450 2C19 (read-out: AC50) it was 39.8 µM (inconclusive); at Cytochrome P450 1A2 it was 25.1 µM (inconclusive).

Usually AC50 stands for the midpoint of the concentration-response curve, whichever way the signal moves. The term IC50 denotes the concentration at which inhibition is half-maximal. Usually CC50 stands for the concentration that lowers cell viability or growth by half.
